Measured values from US7501113B2, “Aerosol formulations and aerosol delivery of buprenorphine” (priority 2003, dated 2009).
Where “and” joins values, the source holds several entries; their conditions need not be identical. Identical values can stand only once. Like-named read-outs stand apart in the source and are kept apart here.

Assays:
[1] = Aerosol particle size determination, 10-stage MOUDI at 30 L/min with USP throat; type: physicochemical; details: for MMAD / Material Balance / Throat Deposition / Wall Losses / Throat Depositions: 5 mg/sec
Method: Aerosol particle size was determined using the 10-stage MOUDI operated at 30 L/min. The sample foils were placed in beakers, 10 mL of sample solvent was added, and the beakers swirled thoroughly. For the USP throat, 10 mL of sample solvent was added and shaken thoroughly. Wall losses were assessed by washing the MOUDI walls with a Kimwipe dipped in sample solvent. The same 10 mL of mobile phase was used to wash the walls of all the stages. The collected samples were analyzed.
(§1) Aerosol particle size was determined using the 10-stage MOUDI operated at 30 L/min. […] For the USP throat, 5 mL of sample solvent was added and shaken thoroughly. Wall losses were assessed by washing the MOUDI walls with a Kimwipe dipped in sample solvent. The same sample solvent was used to wash the walls of all the stages. The collected samples were analyzed using the assay method.
Aerosol particle size was determined using the 10-stage MOUDI operated at 30 L/min. For MOUDI runs 1-4, the sample foils were placed in beakers, 5 mL of sample solvent was added, and the beakers swirled thoroughly. For the USP throat, 5 mL of sample solvent was added and shaken thoroughly. Wall losses were assessed by washing the MOUDI walls with a Kimwipe dipped in sample solvent. The same 5 mL of sample solvent was used to wash the walls of all the stages. The collected samples were analyzed using the assay method. For MOUDI runs 5-9, the procedure was the same as above except distilled deionized water was used in place of the sample solvent. This was done to allow for simultaneous PG particle size analysis. Two actuations were used for all MOUDI runs with the exception of MOUDI runs 1 and 7.
as §1, with “10” for “5”
as §1

[2] = Emitted dose and fine particle fraction; type: physicochemical; details: formulation % w/v: buprenorphine 0.2, buspirone 2.0, cyclobenzaprine 2.0, triazolam 0.1, zolpidem 0.2; for Avg. Emitted Dose per Actuation: 10 second actuations, average of n=3-5 runs; for Avg. FPF: fine particle fraction = percent of total dose collected less than 5.6 microns, n=3-5 runs
[3] = 5 mg/sec
Method: Sham determinations were performed for each set of experiments to determine an “expected” amount of active per capillary aerosol generator (CAG) activation. This was performed by running the equipment at a target resistance of 0.2 ohms, which pumped out the solution of buspirone in PG as a liquid instead of an aerosol. The result was collected on a Kimwipe which was placed into sample solvent and sonicated. This process was performed in triplicate. Two solution concentrations of about 0.5% and about 2% of buspirone in PG were prepared.
(§2) Dose capture determinations were conducted (Table 1). For dose capture runs 1-6, the device was actuated once, the aerosol collected in acidified water, diluted to 40 mL. Runs 7-12 were performed as above, except distilled de-ionized water was used instead of acidified water. For runs 13-33, the device was actuated 4 times, the aerosol was collected in 8 mL of sample solvent, and analyzed for buspirone and degradation products using the “stability indicating” assay. Intact buspirone was calculated. The extent of degradation was evaluated by assuming that the degradation products had similar extinction coefficients as the parent at the wavelength of interest.
The result was collected on a Kimwipe, placed into sample solvent and sonicated. This process was performed in triplicate and was analyzed with other analytical samples.
(§3) Dose capture determinations were conducted.
Sham determinations were performed for each set of experiments to determine an “expected” amount of active per CAG activation. […] This was collected on a Kimwipe which was placed into sample solvent and sonicated. The process was performed in triplicate and was analyzed with other analytical samples.
(§4) Dose capture determinations were conducted (Table 6). For dose capture runs 1-3, the device was actuated once, the aerosol collected in 10 mL of sample solvent and analyzed using the “stability indicating” method. Runs 4-9 were performed as above except the device was actuated twice and collected in 10 mL of sample solvent. […] The extent of degradation was evaluated by assuming that the degradation products had similar extinction coefficients as the parent at the wavelength of interest.
Sham determinations were performed for each set of experiments to determine an “expected” amount of active per CAG activation. […] This was collected on a Kimwipe which was placed into sample solvent and sonicated. This process was performed in triplicate and was analyzed with other analytical samples.
(§5) Dose capture determinations were conducted. […] The extent of degradation was evaluated by assuming that the degradation products had similar extinction coefficients as the parent at the wavelength of interest.
Sham determinations were performed for each set of experiments to determine an “expected” amount of active per CAG activation. This was performed by running the equipment at a target resistance of 0.2 ohms. […] This was collected on a Kimwipe which was placed into sample solvent and sonicated. This process was performed in triplicate and was analyzed with other analytical samples.

[4] = 2 % in PG
Method: (§6) Buspirone was dissolved in acidic and basic solutions and heated to 50 degrees Celsius for 1 hour to promote acid and base catalyzed hydrolysis. Buspirone was also subjected to peroxide with heating to 50 degrees Celsius for 1 hour to promote oxidation. As a final stability check, solid buspirone was subjected to heating with a differential scanning calorimeter. Conditions were optimized to produce thermal degradation products by heating to 350 degrees Celsius.
as §2
(§7) After evaluation of the data, it was determined that buspirone should be thermally stressed with a DSC to produce a degradation profile thought to be more representative of buspirone degradation after aerosolization via the CAG. In doing so, thermal degradation products were produced under the conditions stated above. This provided an indication of retention times for potential degradation products of buspirone after aerosolization using the CAG.
(§8) Buprenorphine was subjected to heating with a differential scanning calorimeter.
as §3
(§9) Conditions were optimized to produce thermal degradation products by heating to 350 degrees Celsius.
as §4
(§10) Thermal degradation products were produced under the conditions stated above.
(§11) Conditions were optimized to produce thermal degradation products by heating to 300 degrees Celsius.
as §5

[5] = Degradation determination after aerosolization (stability indicating assay); details: zolpidem 0.2% in PG, target resistance 0.600 ohms, runs 5-9
Method: as §6, §2, §7, §8, §3, §9, §4, §10, §11, §5

[6] = buspirone 0.5% in PG, target resistance 0.600 ohms
[7] = buspirone 0.5% in PG, target resistance 0.610 ohms, monohydrochloride
[8] = buspirone 2.0% in PG, target resistance 0.590 ohms
[9] = buspirone 2.0% in PG, target resistance 0.595 ohms
[10] = buspirone 2.0% in PG, target resistance 0.600 ohms, monohydrochloride
[11] = buspirone 2.0% in PG, target resistance 0.605 ohms, runs 11-15, listed as buspirone, monohydrochloride
[12] = buspirone 2.0% in PG, target resistance 0.605 ohms, runs 11-15, monohydrochloride
[13] = buspirone 2.0% in PG, target resistance 0.610 ohms
[14] = cyclobenzaprine 2.0% in PG, target resistance 0.595 ohms, 1 actuation
[15] = triazolam 0.1% in PG, target resistance 0.590 ohms
[16] = triazolam 0.1% in PG, target resistance 0.595 ohms
[17] = triazolam 0.1% in PG, target resistance 0.600 ohms
[18] = triazolam 0.1% in PG, target resistance 0.605 ohms, runs 5-9
[19] = zolpidem 0.2% in PG, target resistance 0.590 ohms, 1 actuation
[20] = zolpidem 0.2% in PG, target resistance 0.600 ohms, 1 actuation

Compound: Cl.O=C1CC2(CCCC2)CC(=O)N1CCCCN1CCN(c2ncccn2)CC1 [Buspirone, 8-[4-[4-(2-pyrimidinyl)-1-piperazinyl]butyl]-8-azaspiro[4,5]decane-7,9-dione monohydrochloride]
- MMAD [1, 6]: 0.31 microns
- Material Balance [1, 6]: 100%
- Throat Deposition [1, 6]: 7%
- Wall Losses [1, 6]: 2%
- Wall Losses ([1]; buspirone 0.5% in PG, target resistance 0.610 ohms): 4%
- MMAD [1, 7]: 0.30 microns and 0.47 microns and 0.32 microns and 0.29 microns
- Throat Deposition [1, 7]: 10% and 3% and 6% and 4%
- recovered buspirone found on the throat ([1]; buspirone 2.0% in PG, energies approximately 77 J, runs 8 and 10): greater than 40%
- MMAD [1, 8]: 0.54 microns
- Material Balance [1, 8]: 11%
- Throat Deposition [1, 8]: 44%
- Wall Losses [1, 8]: 6%
- MMAD [1, 9]: 0.46 microns
- Material Balance [1, 9]: 91%
- Throat Deposition [1, 9]: 44%
- Wall Losses [1, 9]: 1%
- MMAD [1, 10]: 0.30 microns and 0.48 microns
- Material Balance [1, 10]: 100% and 98%
- Wall Losses [1, 10]: 2% and 4%
- MMAD [1, 11]: approximately 0.30 microns
- Material Balance [1, 11]: exceeded 100%
- Throat Deposition [1, 11]: less than 5%
- MMAD [1, 12]: 0.31 microns and 0.30 microns and 0.29 microns and 0.32 microns
- Material Balance [1, 12]: 105% and 108% and 102% and 107% and 111%
- Throat Deposition [1, 12]: 4% and 1% and 3% and 2%
- Wall Losses [1, 12]: 4% and 3% and 9%
- MMAD [1, 13]: 0.30 microns
- Material Balance [1, 13]: 98%
- Throat Deposition [1, 13]: 14%
- Wall Losses [1, 13]: 1%
- Avg. Emitted Dose per Actuation [2]: 1010.44 µg
- Avg. FPF [2]: 91.60 % of Emitted
- Dose Capture ([3]; buspirone 2.0% in PG, target resistance 0.595 ohms, runs 13-15, mean): 102^1%
- Dose Capture ([3]; buspirone 2.0% in PG, target resistance 0.600 ohms, runs 24-28, mean): 105^3%
- Dose Capture ([3]; buspirone 2.0% in PG, target resistance 0.605 ohms, about 90 J, runs 29-33, mean, listed as buspirone, monohydrochloride): 104%
- Dose Capture ([3]; buspirone 2.0% in PG, target resistance 0.605 ohms, about 90 J, runs 29-33, mean, monohydrochloride): 104^3%
- Dose Capture ([3]; buspirone 2.0% in PG, target resistance 5.90 ohms, runs 7-9, mean of 3): 9^1%
- average degradation of the active [4]: 0.25%
- major degradation peak, share of degradation observed [4]: approximately 0.09%
- other 8 degradation peaks, each [4]: approximately 0.02%

Compound: CN(C)CCC=C1c2ccccc2C=Cc2ccccc21 [Cyclobenzaprine, 3-(5H-Dibenzo[a,d]cyclohepten-5-ylidene)-N,N-dimethyl-1-propanamine]
- MMAD [1, 14]: 0.330 microns and 0.329 microns and 0.343 microns and 0.333 microns and 0.336 microns and 0.256^2 microns
- Material Balance [1, 14]: 92.04% and 91.03% and 93.48% and 99.10% and 93.99% and 61.98^2%
- Throat Depositions [1, 14]: 3.45% and 3.39% and 5.55% and 2.59% and 3.09% and 4.89^2%
- Wall Losses [1, 14]: 0.81% and 1.12% and 2.33% and 1.98% and 2.26% and 1.99^2%
- Throat Depositions ([1]; cyclobenzaprine 2.0% in PG, target resistance 0.595 ohms, 1 actuation, listed as cyclobenzaprine): less than 4%
- average MMAD ([1]; cyclobenzaprine 2.0% in PG, target resistance 0.595 ohms, approximately 71 J, runs 1-6 excluding run 3): approximately 0.33 microns
- Avg. Emitted Dose per Actuation [2]: 836.16 µg
- Avg. FPF [2]: 94.35 % of Emitted
- Dose Capture ([3]; cyclobenzaprine 2.0% in PG, target resistance 0.595 ohms, about 73 J, 1 actuation, listed as cyclobenzaprine): > 95%
- Dose Capture ([3]; cyclobenzaprine 2.0% in PG, target resistance 0.610 ohms, 1 actuation): 109.93%
- average degradation [4]: less than 0.3%

Compound: Cc1nnc2n1-c1ccc(Cl)cc1C(c1ccccc1Cl)=NC2 [Triazolam, 8-chloro-6-(2-chlorophenyl)-1-methyl-4H-[1,2,4]triazolo[4,3-a][1,4]benzodiazepine]
- MMAD [1, 15]: 0.847 microns and 0.642^3 microns
- Material Balance [1, 15]: 74.08% and 108.22^3%
- Wall Losses [1, 15]: 15.51^3%
- Throat Deposition ([1]; triazolam 0.1% in PG, target resistance 0.590 ohms, approximately 70 J, runs 1 and 2): 33.14% and 39.28^3%
- Throat Deposition ([1]; triazolam 0.1% in PG, target resistance 0.590 ohms, approximately 70 J, runs 1 and 2, listed as triazolam): greater than 30%
- MMAD [1, 16]: 0.414^3 microns
- Material Balance [1, 16]: 98.50^3%
- Throat Deposition [1, 16]: 3.66^3%
- Wall Losses [1, 16]: 6.69^3%
- MMAD [1, 17]: 0.378^3 microns
- Material Balance [1, 17]: 104.22^3%
- Throat Deposition [1, 17]: 2.96^3%
- Wall Losses [1, 17]: 11.04^3%
- MMAD [1, 18]: 0.511^3 microns and 0.431^3 microns and 0.483 microns and 0.444^3 microns and 0.446^3 microns
- Material Balance [1, 18]: 102.10^3% and 96.32^3% and 107.02% and 91.60^3% and 101.09^3%
- Throat Deposition [1, 18]: 2.43^3% and 1.35^3% and 2.87% and 2.47^3% and 1.97^3%
- Throat Deposition ([1]; triazolam 0.1% in PG, target resistance 0.605 ohms, runs 5-9, listed as triazolam): less than 3%
- average MMAD ([1]; triazolam 0.1% in PG, target resistance 0.605 ohms, approximately 90 J, runs 5-9): approximately 0.46 microns
- Avg. Emitted Dose per Actuation [2]: 46.46 µg
- Avg. FPF [2]: 86.16 % of Emitted
- Dose Capture ([3]; triazolam 0.1% in PG, target resistance 0.605 ohms, about 90 J, runs 10-14, mean of 15): 90^2%
- Dose Capture ([3]; triazolam 0.1% in PG, target resistance 0.605 ohms, about 90 J, runs 10-14, mean of 15, listed as triazolam): 90%
- Dose Capture ([3]; triazolam 0.1% in PG, target resistance 0.610 ohms): 86%

Compound: Cc1ccc(-c2nc3ccc(C)cn3c2CC(=O)N(C)C)cc1 [Zolpidem, N,N,6-Trimethyl-2-(4-methylphenyl)-imidazo[1,2-a]pyridine-3-acetamide]
- MMAD [1, 19]: 0.464 microns
- Material Balance [1, 19]: 64.51%
- Throat Deposition [1, 19]: 5.36%
- Wall Losses [1, 19]: 1.68%
- MMAD [1, 20]: 0.481 microns and 0.459 microns and 0.420 microns and 0.421 microns and 0.404 microns and 0.431 microns
- Material Balance [1, 20]: 100.06% and 90.77% and 97.74% and 95.83% and 101.56% and 93.04%
- Throat Deposition [1, 20]: 3.97% and 0.12% and 0.62% and 1.27% and 0.21% and 1.95%
- Wall Losses [1, 20]: 6.18% and 2.67% and 3.55% and 3.85% and 0.90% and 1.35%
- average MMAD ([1]; zolpidem 0.2% in PG, target resistance 0.600 ohms, approximately 75 J, runs 5-8): approximately 0.45 microns
- Avg. Emitted Dose per Actuation [2]: 92.55 µg
- Avg. FPF [2]: 93.25 % of Emitted
- Percent Degradation [5]: 0.26% and 0.02% and 0.00% and 0.03% and 0.16%
- average degradation [5]: less than 0.1%
